Assays:
primary neurons = assay: LDH release of primary neurons after OGD; format: cell-based, mouse; conditions: wild-type neurons
GAPDH = biological target: T1, GAPDH (Mus musculus, UniProt P16858); assay: GAPDH activity assay in primary neurons; format: cell-based
T1 construct: GAPDH activity in primary neurons; endogenous in cells; host or cells: primary neurons (mouse cortical)
Protocol: GAPDH activity was assessed using the GAPDH Activity Assay Kit (Biovision) according to the manufacture's instructions.

δ-secretase = δ-secretase (Mus musculus, UniProt O89017); assay: Cleavage of GST-tau and GFP-APP by kidney lysates, Western blot; conditions: kidney lysates with GST-tau or GFP-APP
[1] = Caco-2 monolayer permeability screen; conditions: human, Caco-2
Protocol: Supplementary Table 3: Caco-2 permeability and BBB-PAMPA permeability
For CaCo-2 permeability assay, cells were incubated with 10 µM of these reagents in
buffers for 2 h, and the receiver side buffer is removed for analysis by LC/MS/MS. Efflux […]
LLOQ: Lower Limit of Quantification; Papp: apparent permeability.

[2] = Liver microsomal stability, human; conditions: human, microsomes, 0.5 h, pH 7.4
Protocol: (§1) Supplementary Table 4: Liver microsomal stability
(§2) Compound Species Mean Remaining Parent Mean Remaining Parent
(§3) (with NADPH) (NADPH-free)
(§4) The test agents were incubated in duplicate with microsomes at 37 °C for 30 min. The reaction contained microsomal protein in 100 mM potassium phosphate, 2 mM NADPH, 3 mM MgCl2, pH 7.4. A control was run for each test agent omitting NADPH to detect NADPH-free degradation. Data are reported as % remaining of parent compound. ND, Peak not detected due to bioanalysis issue (poor ionization).

[3] = Liver microsomal stability, mouse; conditions: mouse, microsomes, 0.5 h, pH 7.4
Protocol: as §1, §2, §3, §4

T1 sequence (P16858 whole entry): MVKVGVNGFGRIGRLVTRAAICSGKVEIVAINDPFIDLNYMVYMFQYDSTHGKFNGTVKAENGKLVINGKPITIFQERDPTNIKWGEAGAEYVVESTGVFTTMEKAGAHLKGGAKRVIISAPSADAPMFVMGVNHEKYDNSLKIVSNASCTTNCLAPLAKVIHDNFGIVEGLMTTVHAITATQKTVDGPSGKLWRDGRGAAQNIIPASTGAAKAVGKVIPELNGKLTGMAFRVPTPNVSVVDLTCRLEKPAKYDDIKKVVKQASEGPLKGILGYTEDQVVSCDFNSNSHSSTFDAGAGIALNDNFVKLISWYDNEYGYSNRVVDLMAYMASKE
δ-secretase, sequence (O89017 18-435): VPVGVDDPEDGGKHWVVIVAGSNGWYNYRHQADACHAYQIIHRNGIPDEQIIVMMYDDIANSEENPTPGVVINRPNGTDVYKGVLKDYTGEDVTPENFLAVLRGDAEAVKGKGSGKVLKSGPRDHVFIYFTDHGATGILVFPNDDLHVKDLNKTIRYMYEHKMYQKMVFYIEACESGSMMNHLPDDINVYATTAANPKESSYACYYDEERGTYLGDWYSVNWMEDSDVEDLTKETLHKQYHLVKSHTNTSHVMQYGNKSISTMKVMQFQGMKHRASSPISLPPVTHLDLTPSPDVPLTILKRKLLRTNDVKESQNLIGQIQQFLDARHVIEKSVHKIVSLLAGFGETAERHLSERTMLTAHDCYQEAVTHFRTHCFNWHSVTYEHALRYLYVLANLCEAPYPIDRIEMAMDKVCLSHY

| GAPDH inhibition (GAPDH; 2 μM) | GAPDH inhibition (GAPDH; 50 μM) | Papp A→B at 2 h, 10 µM [1] [×10⁻⁶ cm/s] | Papp B→A at 2 h, 10 µM [1] [×10⁻⁶ cm/s] | Mean Remaining Parent (NADPH-free) [2] [%] | Mean Remaining Parent (with NADPH) [2] [%] | Mean Remaining Parent (NADPH-free) [3] [%] | Mean Remaining Parent (with NADPH) [3] [%] | SMILES | neuronal injury (LDH in medium) induced by OGD (primary neurons) | cleavage of tau and APP by δ-secretase in vitro (δ-secretase) |
| --- | --- | --- | --- | --- | --- | --- | --- | --- | --- | --- |
| robustly blocked GAPDH | robustly blocked GAPDH |  |  |  |  |  |  | CC(C)[C@H]1CC[C@@]2(CO2)[C@H]2C(=O)OCC(C(=O)O)=C[C@H]12 [KA, koningic acid, reference compound] | neither compound 11d15 nor KA showed any neuroprotective effect | did not affect the cleavage of tau and APP |
|  |  | 0.8 |  |  |  |  |  | CNC(=C[N+](=O)[O-])NCCSCc1ccc(CN(C)C)o1 [Ranitidine, reference compound] |  |  |
|  |  | 28.5 | 12.6 | 104 | 96 | 100 | 91 | CC(=O)CC(c1ccccc1)c1c(O)c2ccccc2oc1=O (centres unmarked) [Warfarin, reference compound] |  |  |

Reference: article PMC5378956, “Inhibition of delta-secretase improves cognitive functions in mouse models of Alzheimer's disease” (Nature Communications, 2017)
